How the values were obtained:
Assay in all cases: Histone peptide microarray
Format in all cases: binding, human
Settings in all cases: arrays performed twice, n of 4
KDM5A (1) = test system: KDM5A (1)
In short: (§1)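 Binding of recombinant GST-fused PHD readers (0.5 μM) is detected on an array of 293 histone peptides, modified singly or in combination. An optimized array protocol is followed, and each intensity is the average of quadruplicate measurements with standard deviation.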

TAF3 = test system: TAF3
In short: as §1

PHF13 = test system: PHF13
In short: as §1

CHD5 (PCC) = test system: CHD5 (PCC)
In short: as §1

CHD4 (PPCC) = test system: CHD4 (PPCC)
In short: as §1

SP140L = test system: SP140L
In short: as §1

DIDO1 = test system: DIDO1
In short: as §1

BPTF (PB) = test system: BPTF (PB)
In short: as §1

BAZ2B = test system: BAZ2B
In short: as §1

ING5 = test system: ING5
In short: as §1

PHF8 = test system: PHF8
In short: as §1

MORC3 (CW) = test system: MORC3 (CW)
In short: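 A peptide microarray holding 293 synthetic histone peptides with individual or combinatorial modifications was probed with each GST-PHD protein at 0.5 μM. Values represent mean intensity (±SD) from four replicates.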

KDM5B (3) = test system: KDM5B (3)
In short: as §1

PHF21A = test system: PHF21A
In short: as §1

KDM4C (TTP) = test system: KDM4C (TTP)
In short: as §1

ING1 = test system: ING1
In short: as §1

DPF2 (PPC2W2) = test system: DPF2 (PPC2W2)
In short: as §1

KDM7A = test system: KDM7A
In short: as §1

PHF2 = test system: PHF2
In short: as §1

ING4 = test system: ING4
In short: as §1

AIRE (PP) = test system: AIRE (PP)
In short: as §1

PHF23 = test system: PHF23
In short: as §1

CHD5 (PPCC) = test system: CHD5 (PPCC)
In short: as §1

RAG2 = test system: RAG2
In short: as §1

KDM5B (1) = test system: KDM5B (1)
In short: as §1

ING3 = test system: ING3
In short: as §1

PHRF1 (RP) = test system: PHRF1 (RP)
In short: as §1

KDM5A (3) = test system: KDM5A (3)
In short: as §1

MLL5 = test system: MLL5
In short: as §1

ING2 = test system: ING2
In short: as §1

TRIM66 (PB) = test system: TRIM66 (PB)
In short: as §1

[1] = histone peptide array, GST-tagged reader
[2] = histone peptide array, GST-tagged reader, PPCC = Dual PHD + Dual Chromodomain
[3] = histone peptide array, GST-tagged reader, PB = PHD + Bromodomain

With H4K8but (1-23): H4 1-23 the “Array Heatmap signal, KDM5A (1)” value (KDM5A (1); [1]) was 0.5298, the “Array Heatmap signal, TAF3” value (TAF3; [1]) was 0.3164 and the “Array Heatmap signal, PHF13” value (PHF13; [1]) was 0.6477. For the same substance, the “Array Heatmap signal, CHD5 (PCC)” value (CHD5 (PCC); histone peptide array, GST-tagged reader, PCC = PHD + Dual Chromodomain) was 0.8434, the “Array Heatmap signal, CHD4 (PPCC)” value (CHD4 (PPCC); [2]) was 0.5879 and the “Array Heatmap signal, SP140L” value (SP140L; [1]) was 0.3902. For the same substance, the “Array Heatmap signal, DIDO1” value (DIDO1; [1]) was 0.6187, the “Array Heatmap signal, BPTF (PB)” value (BPTF (PB); [3]) was 0.3704 and the “Array Heatmap signal, BAZ2B” value (BAZ2B; [1]) was 0.516. For the same substance, the “Array Heatmap signal, ING5” value (ING5; [1]) was 0.3969, the “Array Heatmap signal, PHF8” value (PHF8; [1]) was 0.3491 and the “Array Heatmap signal, MORC3 (CW)” value (MORC3 (CW); histone peptide array, GST-tagged reader, CW = CW-type Zn-finger) was 0.3738. The “Array Heatmap signal, KDM5B (3)” value (KDM5B (3); [1]) was 0.4914, the “Array Heatmap signal, PHF21A” value (PHF21A; [1]) was 0.5096 and the “Array Heatmap signal, KDM4C (TTP)” value (KDM4C (TTP); histone peptide array, GST-tagged reader, TTP = Tandem Tudor domain + PHD) was 0.554. For the same substance, the “Array Heatmap signal, ING1” value (ING1; [1]) was 0.5208, the “Array Heatmap signal, DPF2 (PPC2W2)” value (DPF2 (PPC2W2); histone peptide array, GST-tagged reader, PPC2W2 = Dual PHD + C2W2-type Zn-finger) was 0.6771 and the “Array Heatmap signal, KDM7A” value (KDM7A; [1]) was 0.4551. The “Array Heatmap signal, PHF2” value (PHF2; [1]) was 0.4448, the “Array Heatmap signal, ING4” value (ING4; [1]) was 0.503 and the “Array Heatmap signal, AIRE (PP)” value (AIRE (PP); [1]) was 0.5833. For the same substance, the “Array Heatmap signal, PHF23” value (PHF23; [1]) was 0.5244, the “Array Heatmap signal, CHD5 (PPCC)” value (CHD5 (PPCC); [2]) was 0.6043 and the “Array Heatmap signal, RAG2” value (RAG2; [1]) was 0.2428. The “Array Heatmap signal, KDM5B (1)” value (KDM5B (1); [1]) was 0.6708, the “Array Heatmap signal, ING3” value (ING3; [1]) was 0.4842 and the “Array Heatmap signal, PHRF1 (RP)” value (PHRF1 (RP); [1]) was 0.4442. For the same substance, the “Array Heatmap signal, KDM5A (3)” value (KDM5A (3); [1]) was 0.4217, the “Array Heatmap signal, MLL5” value (MLL5; [1]) was 0.5606 and the “Array Heatmap signal, ING2” value (ING2; [1]) was 0.5968. For the same substance, the “Array Heatmap signal, TRIM66 (PB)” value (TRIM66 (PB); [3]) was 0.6276.

H4K8me1: H4 1-23 [Peptide H4K8me1] was tested, and the “Array Heatmap value (peptide array binding signal)” value (from here on “Array Heatmap value”) (KDM5A (1); KDM5A (1), GST-tagged) was 0.445, the “Array Heatmap value” value (TAF3; TAF3, GST-tagged) was 0.2722 and the “Array Heatmap value” value (PHF13; PHF13, GST-tagged) was 0.6242. For the same substance, the “Array Heatmap value” value (CHD5 (PCC); CHD5 (PCC), GST-tagged) was 0.8139, the “Array Heatmap value” value (CHD4 (PPCC); CHD4 (PPCC), GST-tagged) was 0.6125 and the “Array Heatmap value” value (SP140L; SP140L, GST-tagged) was 0.3853. The “Array Heatmap value” value (DIDO1; DIDO1, GST-tagged) was 0.7218, the “Array Heatmap value” value (BPTF (PB); BPTF (PB), GST-tagged) was 0.3716 and the “Array Heatmap value” value (BAZ2B; BAZ2B, GST-tagged) was 0.4726. For the same substance, the “Array Heatmap value” value (ING5; ING5, GST-tagged) was 0.3641, the “Array Heatmap value” value (PHF8; PHF8, GST-tagged) was 0.3718 and the “Array Heatmap value” value (MORC3 (CW); MORC3 (CW), GST-tagged) was 0.3765. The “Array Heatmap value” value (KDM5B (3); KDM5B (3), GST-tagged) was 0.4591, the “Array Heatmap value” value (PHF21A; PHF21A, GST-tagged) was 0.4915 and the “Array Heatmap value” value (KDM4C (TTP); KDM4C (TTP), GST-tagged) was 0.4883. The “Array Heatmap value” value (ING1; ING1, GST-tagged) was 0.5733, the “Array Heatmap value” value (DPF2 (PPC2W2); DPF2 (PPC2W2), GST-tagged) was 0.7109 and the “Array Heatmap value” value (KDM7A; KDM7A, GST-tagged) was 0.3413. The “Array Heatmap value” value (PHF2; PHF2, GST-tagged) was 0.5963, the “Array Heatmap value” value (ING4; ING4, GST-tagged) was 0.4749 and the “Array Heatmap value” value (AIRE (PP); AIRE (PP), GST-tagged) was 0.4246. For the same substance, the “Array Heatmap value” value (PHF23; PHF23, GST-tagged) was 0.5427, the “Array Heatmap value” value (CHD5 (PPCC); CHD5 (PPCC), GST-tagged) was 0.558 and the “Array Heatmap value” value (RAG2; RAG2, GST-tagged) was 0.2588. The “Array Heatmap value” value (KDM5B (1); KDM5B (1), GST-tagged) was 0.6396, the “Array Heatmap value” value (ING3; ING3, GST-tagged) was 0.514 and the “Array Heatmap value” value (PHRF1 (RP); PHRF1 (RP), GST-tagged) was 0.4962. For the same substance, the “Array Heatmap value” value (KDM5A (3); KDM5A (3), GST-tagged) was 0.4616, the “Array Heatmap value” value (MLL5; MLL5, GST-tagged) was 0.5584 and the “Array Heatmap value” value (ING2; ING2, GST-tagged) was 0.5951. For the same substance, the “Array Heatmap value” value (TRIM66 (PB); TRIM66 (PB), GST-tagged) was 0.6142.
